Assays:
[1] = target: T1, Serine/threonine-protein kinase B-raf (Homo sapiens, UniProt P15056); assay: Inhibition of B-Raf
[2] = target: T1, Serine/threonine-protein kinase B-raf; assay: Inhibition of B-Raf-mediated ERK phosphorylation in cell-based assay
[3] = Apparent permeability from apical to basolateral side in human Caco2 cells; format: ADME, cell-based; settings: caco-2
Caco-2 = assay: Efflux ratio of apparent permeability from […] in human Caco2 cells; format: ADME, cell-based
[4] = AUC in CD-1 mouse at 2.5 mg/kg, iv; format: ADME, organism-based; design: dose 2.5 mg/kg, route intravenous; settings: plasma
[5] = AUC in CD-1 mouse at 50 mg/kg, po; format: ADME, organism-based; design: dose 50 mg/kg, route oral; settings: plasma
[6] = AUC in CD-1 mouse at 25 mg/kg, po; format: ADME, organism-based; design: dose 25 mg/kg, route oral; settings: plasma
[7] = AUC in CD-1 mouse at 100 mg/kg, po; format: ADME, organism-based; design: dose 100 mg/kg, route oral; settings: plasma
[8] = Clearance in CD-1 mouse at 2.5 mg/kg, iv; format: ADME, organism-based; design: dose 2.5 mg/kg, route intravenous; settings: in vivo
[9] = Volume of distribution at steady state in CD-1 mouse at 2.5 mg/kg, iv; format: ADME, organism-based; design: dose 2.5 mg/kg, route intravenous; settings: in vivo, read-out: Vdss

T1 sequence (P15056 whole entry): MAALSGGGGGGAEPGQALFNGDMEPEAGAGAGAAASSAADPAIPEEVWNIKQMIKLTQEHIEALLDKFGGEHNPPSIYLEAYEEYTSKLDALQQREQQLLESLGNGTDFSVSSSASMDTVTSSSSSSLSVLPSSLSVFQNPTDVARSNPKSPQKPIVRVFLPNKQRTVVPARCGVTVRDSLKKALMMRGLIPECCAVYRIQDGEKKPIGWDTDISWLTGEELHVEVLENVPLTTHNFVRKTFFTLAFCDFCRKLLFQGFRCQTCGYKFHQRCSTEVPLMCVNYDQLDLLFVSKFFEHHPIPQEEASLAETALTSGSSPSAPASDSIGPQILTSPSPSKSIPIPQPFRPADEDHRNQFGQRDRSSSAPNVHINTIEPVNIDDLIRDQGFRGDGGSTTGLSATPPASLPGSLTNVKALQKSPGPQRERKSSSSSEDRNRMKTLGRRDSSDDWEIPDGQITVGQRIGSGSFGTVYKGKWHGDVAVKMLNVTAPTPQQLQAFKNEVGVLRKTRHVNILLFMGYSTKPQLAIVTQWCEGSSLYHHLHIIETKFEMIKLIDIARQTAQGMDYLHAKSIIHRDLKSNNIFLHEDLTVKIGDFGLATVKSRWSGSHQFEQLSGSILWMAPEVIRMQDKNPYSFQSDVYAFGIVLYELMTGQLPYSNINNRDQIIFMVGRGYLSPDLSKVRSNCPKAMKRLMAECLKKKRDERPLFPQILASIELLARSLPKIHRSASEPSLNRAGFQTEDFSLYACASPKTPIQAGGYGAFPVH

| Compound | IC50 [1] | IC50 [2] | other results |
| --- | --- | --- | --- |
| CCc1c[nH]nc1-c1ccc(-c2cn(C)nc2-c2ccncc2)cc1 | > 1000 nM |  |  |
| Cn1cc(-c2ccc3c(c2)CCc2c[nH]nc2-3)c(-c2ccncc2)n1 | 23 nM |  |  |
| Cn1cc(-c2ccc3c(c2)CCc2n[nH]cc2-3)c(-c2ccncc2)n1 | > 1000 nM |  |  |
| Cn1cc(-c2ccc3c(c2)Cc2n[nH]nc2-3)c(-c2ccncc2)n1 | 11 nM |  |  |
| Cn1cc(-c2ccc(-c3c[nH]nn3)cc2)c(-c2ccncc2)n1 | 55 nM |  |  |
| Cn1cc(-c2ccc(-c3cc[nH]c3)cc2)c(-c2ccncc2)n1 | 788 nM |  |  |
| Cn1cc(-c2ccc3c(c2)CNC3=O)c(-c2ccncc2)n1 | 94 nM |  |  |
| CNC(=O)c1ccc(-c2cn(C)nc2-c2ccncc2)cc1 | 647 nM |  |  |
| Cn1cc(-c2ccc(S(N)(=O)=O)cc2)c(-c2ccncc2)n1 | > 1000 nM |  |  |
| Cn1cc(-c2cccc3[nH]ncc23)c(-c2ccncc2)n1 | 468 nM |  |  |
| Cn1cc(-c2ccc3[nH]ncc3c2)c(-c2ccncc2)n1 | > 1000 nM |  |  |
| Cn1cc(-c2ccc3[nH]ccc3c2)c(-c2ccncc2)n1 | 861 nM |  |  |
| Cn1cc(-c2ccc3cc[nH]c3c2)c(-c2ccncc2)n1 | 328 nM |  |  |
| Cn1cc(-c2ccc3c(O)cccc3c2)c(-c2ccncc2)n1 | 1.4 nM |  |  |
| Cn1cc(-c2ccc3cc(O)ccc3c2)c(-c2ccncc2)n1 | 77 nM |  |  |
| Cn1cc(N)c(-c2ccncc2)n1 | > 1000 nM |  |  |
| Cn1cc(O)c(-c2ccncc2)n1 | > 1000 nM |  |  |
| c1cc(-c2nn(C3CCNCC3)cc2-c2ccc3c(c2)Cc2c[nH]nc2-3)ccn1 |  | 230 nM | Papp A→B [3]: 1.88 ×10⁻⁶ cm/s; Ratio (Caco-2): 6.17 |

| Compound | IC50 [1] | IC50 [2] | other results |
| --- | --- | --- | --- |
| CN1CCC(n2cc(-c3ccc4c(c3)Cc3c[nH]nc3-4)c(-c3ccncc3)n2)CC1 | 8 nM | 886 nM |  |
| c1cc(-c2nn(C3CC4CCC(C3)N4)cc2-c2ccc3c(c2)Cc2c[nH]nc2-3)ccn1 (configuration not stated) | 0.57 nM | 262 nM |  |
| c1cc(-c2nn(C3CCCNC3)cc2-c2ccc3c(c2)Cc2c[nH]nc2-3)ccn1 (configuration not stated) | 3.7 nM | 1670 nM |  |
| c1cc(-c2nn(C3CCCNCC3)cc2-c2ccc3c(c2)Cc2c[nH]nc2-3)ccn1 (configuration not stated) | 3.2 nM | 1540 nM |  |
| N[C@H]1CC[C@H](n2cc(-c3ccc4c(c3)Cc3c[nH]nc3-4)c(-c3ccncc3)n2)CC1 | 0.66 nM | 396 nM |  |
| N[C@H]1CC[C@@H](n2cc(-c3ccc4c(c3)Cc3c[nH]nc3-4)c(-c3ccncc3)n2)CC1 | 22.9 nM | 1520 nM |  |
| CNCCn1cc(-c2ccc3c(c2)Cc2c[nH]nc2-3)c(-c2ccncc2)n1 | 72.5 nM | 8160 nM |  |
| O[C@@H]1CCC[C@H](n2cc(-c3ccc4c(c3)Cc3c[nH]nc3-4)c(-c3ccncc3)n2)C1 | 2 nM | 607 nM |  |
| c1ccc(-n2cc(-c3ccc4c(c3)Cc3c[nH]nc3-4)c(-c3ccncc3)n2)cc1 | 4.6 nM | 4370 nM |  |
| O[C@@H]1CNCC[C@H]1n1cc(-c2ccc3c(c2)Cc2c[nH]nc2-3)c(-c2ccncc2)n1 | 4.9 nM | 4870 nM |  |
| c1cc(-c2nn(C3CC4COCC(C3)N4)cc2-c2ccc3c(c2)Cc2c[nH]nc2-3)ccn1 (configuration not stated) | 5 nM | 619 nM |  |
| F[C@H]1CNCC[C@H]1n1cc(-c2ccc3c(c2)Cc2c[nH]nc2-3)c(-c2ccncc2)n1 | 3.8 nM | 407 nM |  |
| F[C@H]1CCNC[C@H]1n1cc(-c2ccc3c(c2)Cc2c[nH]nc2-3)c(-c2ccncc2)n1 | 3.2 nM | 2120 nM |  |
| F[C@H]1CNCC[C@@H]1n1cc(-c2ccc3c(c2)Cc2c[nH]nc2-3)c(-c2ccncc2)n1 | 1.25 nM | 672 nM |  |
| Cc1c[nH]nc1-c1ccc(-c2cn(C)nc2-c2ccncc2)cc1 | 7 nM |  |  |
| Cn1cc(-c2ccc3cn[nH]c3c2)c(-c2ccncc2)n1 | 139 nM |  |  |
| F[C@@H]1CNCC[C@H]1n1cc(-c2ccc3c(c2)Cc2c[nH]nc2-3)c(-c2ccncc2)n1 (stereo in doubt; 38) | 1.4 nM | 700 nM | Papp A→B [3]: 11.4 ×10⁻⁶ cm/s; AUC [4]: 406 ng·h/mL; Ratio (Caco-2): 1.55; AUC [5]: 13400 ng·h/mL; AUC [6]: 5160 ng·h/mL; AUC [7]: 38800 ng·h/mL; clearance [8]: 91.1 mL/min/kg; Vd [9]: 8.74 L/kg |
| F[C@@H]1CNCC[C@H]1n1cc(-c2ccc3c(c2)Cc2c[nH]nc2-3)c(-c2ccncc2)n1 (stereo in doubt; 41) | 1.6 nM | 532 nM |  |
